Counter-ions that a name gives are not always drawn.
Columns and labels:
Type in all cases: cell-based
[1] = system: E. cloacae; assay: In vitro activity, MIC of strain group (Table 2); conditions: Enterobacter cloacae; Gn-II E. cloacae, 7 strains; read-out: Geometric mean of MIC
[2] = system: Ps. aeruginosa A20717; assay: MIC, serial two-fold agar dilution (Table 1); conditions: Pseudomonas aeruginosa, Mueller-Hinton agar
Procedure: (§1) Minimum inhibitory concentrations (MIC) of BB-S 651, BB-S 669 and BB-S 676 were determined by serial two-fold agar dilution method using Steers' apparatus on Mueller-Hinton agar plate against 15 test organisms for primary screening as shown in Table 1.

[3] = system: Ps. aeruginosa A9843; assay: MIC, serial two-fold agar dilution (Table 1); conditions: Pseudomonas aeruginosa, Mueller-Hinton agar
Procedure: as §1

[4] = system: S. aureus 209P A9497; assay: MIC, serial two-fold agar dilution (Table 1); conditions: Staphylococcus aureus; S. aureus 209P A9497; Mueller-Hinton agar; read-out: MIC
Procedure: as §1

[5] = system: S. aureus #193; assay: MIC, serial two-fold agar dilution (Table 1); conditions: Staphylococcus aureus; S. aureus #193, penicillinase-producing; Mueller-Hinton agar; read-out: MIC
Procedure: as §1

[6] = system: Ps. aeruginosa A20718; assay: MIC, serial two-fold agar dilution (Table 1); conditions: Pseudomonas aeruginosa, Mueller-Hinton agar
Procedure: as §1

[7] = system: S. marcescens A20019; assay: MIC, serial two-fold agar dilution (Table 1); conditions: Serratia marcescens, Mueller-Hinton agar
Procedure: as §1

[8] = system: E. coli Juhl A15119; assay: MIC, serial two-fold agar dilution (Table 1); conditions: Escherichia coli, JUHLA15119; E. coli Juhl A15119, cephalothin-sensitive; Mueller-Hinton agar
Procedure: as §1

[9] = system: Ps. aeruginosa A15150; assay: MIC, serial two-fold agar dilution (Table 1); conditions: Pseudomonas aeruginosa, Mueller-Hinton agar
Procedure: as §1

[10] = system: S. aureus BX-1633-2 A9606; assay: MIC, serial two-fold agar dilution (Table 1); conditions: Staphylococcus aureus, BX16332A9606; S. aureus BX-1633-2 A9606, penicillinase-producing; Mueller-Hinton agar; read-out: MIC
Procedure: as §1

[11] = system: S. aureus Smith A9537; assay: MIC, serial two-fold agar dilution (Table 1); conditions: Staphylococcus aureus, SMITHA9537, Mueller-Hinton agar
Procedure: as §1

[12] = system: E. cloacae A9656; assay: MIC, serial two-fold agar dilution (Table 1); conditions: Enterobacter cloacae, Mueller-Hinton agar
Procedure: as §1

[13] = system: E. coli A15164; assay: MIC, serial two-fold agar dilution (Table 1); conditions: Escherichia coli; E. coli A15164, cephalothin-resistant; Mueller-Hinton agar
Procedure: as §1

[14] = system: E. coli A9660; assay: MIC, serial two-fold agar dilution (Table 1); conditions: Escherichia coli; E. coli A9660, cephalothin-sensitive; Mueller-Hinton agar
Procedure: as §1

[15] = system: Ps. aeruginosa A20229; assay: MIC, serial two-fold agar dilution (Table 1); conditions: Pseudomonas aeruginosa, Mueller-Hinton agar
Procedure: as §1

[16] = system: E. coli A15148; assay: MIC, serial two-fold agar dilution (Table 1); conditions: Escherichia coli; E. coli A15148, cephalothin-resistant; Mueller-Hinton agar
Procedure: as §1

[17] = system: H. influenzae; assay: In vitro activity, MIC of strain group (Table 2); conditions: Haemophilus influenzae; Gn-IV H. influenzae, 4 strains; read-out: Geometric mean of MIC
Procedure: as §1

[18] = system: S. aureus (Gp-Ib); assay: In vitro activity, MIC of strain group (Table 2); conditions: Staphylococcus aureus, 16 strains, read-out: Geometric mean of MIC
Procedure: as §1

[19] = system: E. coli (Gn-Ib); assay: In vitro activity, MIC of strain group (Table 2); conditions: Escherichia coli, 13 strains, read-out: Geometric mean of MIC
Procedure: as §1

[20] = system: S. marcescens; assay: In vitro activity, MIC of strain group (Table 2); conditions: Serratia marcescens; Gn-II S. marcescens, 10 strains; read-out: Geometric mean of MIC
Procedure: as §1

[21] = system: S. pyogenes; assay: In vitro activity, MIC of strain group (Table 2); conditions: Streptococcus pyogenes; Gp-II S. pyogenes, 10 strains; read-out: Geometric mean of MIC
Procedure: as §1

Question: Which MIC [1] does the source give for `CN(C)Cc1ccc[n+](CC2=C(C(=O)[O-])N3C(=O)C(NC(=O)[C@H](NC(=O)c4cnc5cccnc5c4O)c4ccc(O)cc4)C3SC2)c1` (stereo partly drawn) [BB-S 651, 7-[D-α-(4-Hydroxy-1,5-naphthyridine-3-carboxamido)-α-(4-hydroxyphenyl)acetamido]-3-(3-N,N-dimethylaminomethylpyridinium)methyl-3-cephem-4-carboxylate Hydrochloride] here?
Answer: The MIC was greater than 100 µg/mL.

Question: What about the MIC [2] of the same molecule?
Answer: The MIC was 1.6 µg/mL.

Question: What about the MIC [3] of the same molecule?
Answer: Its MIC is 1.6 µg/mL.

Question: What about the MIC [4] of the same molecule?
Answer: Its MIC is 0.8 µg/mL.

Question: What about the MIC [5] of the same molecule?
Answer: Its MIC is 6.3 µg/mL.

Question: And the MIC [6]?
Answer: Its MIC is 0.8 µg/mL.

Question: And the MIC [7]?
Answer: Its MIC is 50 µg/mL.

Question: And the MIC [8]?
Answer: The MIC was 6.3 µg/mL.

Question: What about the MIC [9] of the same molecule?
Answer: Its MIC is 0.8 µg/mL.

Question: And the MIC [10]?
Answer: The MIC was 6.3 µg/mL.

Question: And the MIC [11]?
Answer: Its MIC is 3.1 µg/mL.

Question: And the MIC [12]?
Answer: Its MIC is 12.5 µg/mL.

Question: What about the MIC [13] of the same molecule?
Answer: Its MIC is 25 µg/mL.

Question: What about the MIC [14] of the same molecule?
Answer: Its MIC is 1.6 µg/mL.

Question: What about the MIC [15] of the same molecule?
Answer: The MIC was 0.8 µg/mL.

Question: What about the MIC [16] of the same molecule?
Answer: The MIC was 3.1 µg/mL.

Question: What about the MIC [17] of the same molecule?
Answer: The MIC was 0.8 µg/mL.

Question: And the MIC [18]?
Answer: The MIC was 42 µg/mL.

Question: And the MIC [19]?
Answer: Its MIC is 29 µg/mL.

Question: And the MIC [20]?
Answer: The MIC was greater than 100 µg/mL.

Question: And the MIC [21]?
Answer: The MIC was 0.4 µg/mL.

Question: `CCN1CCN(C(=O)N[C@@H](C(=O)N[C@@H]2C(=O)N3C(C(=O)O)=C(CSc4nnnn4C)CS[C@H]23)c2ccc(O)cc2)C(=O)C1=O` [Cefoperazone, reference compound] was tested. Which MIC [17] did it give?
Answer: Its MIC is 0.8 µg/mL.

Question: What about the MIC [18] of the same molecule?
Answer: The MIC was 17 µg/mL.

Question: What about the MIC [19] of the same molecule?
Answer: Its MIC is 3.7 µg/mL.

Question: And the MIC [20]?
Answer: The MIC was 47 µg/mL.

Question: What about the MIC [21] of the same molecule?
Answer: The MIC was 0.2 µg/mL.
